Values after ≈ are worked out from the molar mass of the structure shown. Read-outs that look alike come from different tables or passages of the source.
Legend:
[1] = treated for 30 min from 20 to 100 °C (method: 30-100 °C); read-out qualitative spot-on-lawn bioassay
[2] = pH range from 2.0 to 10.0 (method: pH 2.0-9.0), 25 °C for 2 h; read-out qualitative spot-on-lawn bioassay
[3] = tested on: L. monocytogenes ATCC 19115; assay: microbe, parasite or virus in culture; assay type: cell-based, Listeria monocytogenes
Description: (§1) An array of indicator strains (S. aureus ATCC 6538, E. faecalis CICC 21605, E. faecium CICC 10004 and L. monocytogenes ATCC 19115) were used to determine the MIC of flexusin A by the methods, as reported. […] The purified powder of flexusin A was reconstituted at 256 μg/mL to serve as the stock solution. It was then used for the antibacterial activity assay over a range of 256, 128, 64, 32, 16, 8, 4, 2, 1, 0.5, 0.25, and 0.125 μg/mL. The protein concentration of the flexusin A stock solution was determined by the BCA method (BCA Protein Assay Kit, Sangon Biotech)”. Water was used as a negative control, whereas ampicillin (Solarbio, Beijing, China) was used as positive control. All assays were performed in triplicate. MIC was defined as the lowest concentration of flexusin A that inhibited indicator growth, as no visible microbial growth was observed.

[4] = HPLC purified sample, neutral water; qualitative
Description: (§2) The HPLC purified bacteriocin samples were made readily soluble in neutral water, and the stock solution was then tested for sensitivity to heat, pH changes, and degradative enzymes. The qualitative spot-on-lawn bioassay was used to monitor changes in antimicrobial potency after treatments mentioned. For thermal stability testing, aliquots of the HPLC-purified peptide samples were exposed to 30 °C, 40 °C, 50 °C, 60 °C, 70 °C, 80 °C, 90 °C, and 100 °C for 30 min, respectively. For the pH stability test, aliquots of the stock solutions were adjusted to pH 2.0, 3.0, 4.0, 5.0, 6.0, 7.0, 8.0, and 9.0, followed by incubation at 25 °C for 2 h.

[5] = tested on: S. aureus ATCC 6538; assay: microbe, parasite or virus in culture; assay type: cell-based, Staphylococcus aureus
Description: as §1

[6] = molecular target: protease K (Parengyodontium album, UniProt P06873); settings: protease K 1 mg/mL, 25 mM phosphate buffer pH 7.0, 37 °C for 4 h; residual antimicrobial activity, spot-on-lawn bioassay
Sequence of protease K (P06873 106-384): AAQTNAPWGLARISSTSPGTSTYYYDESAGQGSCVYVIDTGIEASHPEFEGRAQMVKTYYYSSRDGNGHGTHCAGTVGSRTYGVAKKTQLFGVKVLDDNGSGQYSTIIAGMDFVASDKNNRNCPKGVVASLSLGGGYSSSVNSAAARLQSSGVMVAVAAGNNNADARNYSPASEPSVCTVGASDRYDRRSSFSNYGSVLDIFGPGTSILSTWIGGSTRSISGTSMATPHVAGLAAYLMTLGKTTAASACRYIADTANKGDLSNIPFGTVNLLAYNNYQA
Description: as §2
(§3) Sensitivity to various degradative enzymes was determined using trypsin, papain, pepsin, chymotrypsin, and protease K at a final concentration of 1 mg/mL, respectively. All enzymes were purchased from Sigma, and their solutions were prepared in 25 mM phosphate buffer, pH 7.0 (pepsin, pH = 2.0). Solutions of the antimicrobial peptide were prepared in the same sterile buffer. After mixing the enzymatic reaction solutions were incubated at 37 °C for 4 h before residual antimicrobial activity measurement.

[7] = tested on: trypsin; settings: trypsin 1 mg/mL, 25 mM phosphate buffer pH 7.0, 37 °C for 4 h; residual antimicrobial activity, spot-on-lawn bioassay
Description: as §2, §3

[8] = molecular target: pepsin (Sus scrofa, UniProt P00791); settings: pepsin 1 mg/mL, 25 mM phosphate buffer pH 2.0, 37 °C for 4 h; residual antimicrobial activity, spot-on-lawn bioassay
Sequence of pepsin (P00791 60-385): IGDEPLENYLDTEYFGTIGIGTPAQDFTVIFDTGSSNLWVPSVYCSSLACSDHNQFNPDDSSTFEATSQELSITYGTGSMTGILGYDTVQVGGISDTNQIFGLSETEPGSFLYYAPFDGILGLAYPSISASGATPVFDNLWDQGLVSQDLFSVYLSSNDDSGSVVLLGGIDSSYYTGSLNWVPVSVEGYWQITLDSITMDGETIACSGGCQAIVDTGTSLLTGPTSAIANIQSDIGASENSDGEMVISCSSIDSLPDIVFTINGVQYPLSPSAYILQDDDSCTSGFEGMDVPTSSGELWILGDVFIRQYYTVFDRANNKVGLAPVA
Description: as §2, §3

[9] = molecular target: chymotrypsin (Bos taurus, UniProt P00766); settings: chymotrypsin 1 mg/mL, 25 mM phosphate buffer pH 7.0, 37 °C for 4 h; residual antimicrobial activity, spot-on-lawn bioassay
Description: as §2, §3

[10] = tested on: E. faecalis CICC 21605; assay: microbe, parasite or virus in culture; assay type: cell-based, Enterococcus faecalis
Description: as §1

[11] = tested on: E. faecium CICC 10004; assay: MIC by broth microdilution; assay type: cell-based; settings: Enterococcus faecium, CICC10004, 96-well, approximately 1 × 10^6 CFU/mL, 37 °C, 24 h, no visible growth, triplicate
Description: as §1

Compound	Thermal stability (remaining activity) [1]	pH stability (remaining activity) [2]	MIC ([3]; ATCC 19115, 24 h) [µg/mL]	Solubility in water [4]	MIC ([5]; ATCC 6538, 24 h) [µg/mL]	Resistance to protease K (remaining activity) [6]	Resistance to trypsin (remaining activity) [7]	Resistance to pepsin (remaining activity) [8]	Resistance to chymotrypsin (remaining activity) [9]	MIC ([10]; CICC 21605, 24 h) [µg/mL]	MIC ([3]; Listeria monocytogenes, ATCC19115, L. monocytogenes ATCC 19115, broth microdilution, 96-well, approximately 1 × 10^6 CFU/mL, 37 °C, 24 h, no visible growth, triplicate, read-out: MIC) [µg/mL]	MIC ([5]; Staphylococcus aureus, ATCC6538, S. aureus ATCC 6538, broth microdilution, 96-well, approximately 1 × 10^6 CFU/mL, 37 °C, 24 h, no visible growth, triplicate, read-out: MIC) [µg/mL]	MIC [11] [µg/mL]	MIC ([10]; Enterococcus faecalis, CICC21605, E. faecalis CICC 21605, broth microdilution, 96-well, approximately 1 × 10^6 CFU/mL, 37 °C, 24 h, no visible growth, triplicate, read-out: MIC) [µg/mL]
cyclo(AGALGISEYWANVIVTAIEAGSTVLALISMFASFGLTSALILTAKSLLKKGAKKTAVAYI) [flexusin A]	decent thermal stability	stable	2	water soluble	1	sensitive	tolerant	tolerant	sensitive	16				
CC1(C)S[C@@H]2[C@H](NC(=O)[C@H](N)c3ccccc3)C(=O)N2[C@H]1C(=O)O [Amp, ampicillin, reference compound]											0.0625 (≈ 0.179 µM)	0.4 (≈ 1.14 µM)	1.6 (≈ 4.58 µM)	> 51.2

— PMC11943950, “Characterization of Flexusin A, a Novel Circular Bacteriocin Produced by Marine Bacterium Bacillus flexus R29-2” (Marine Drugs, 2025)
